Reference: patent US20120211373A1, “MICROFLUIDIC SYSTEM FOR MEASURING CELL BARRIER FUNCTION” (THE REGENTS OF THE UNIVERSITY OF MICHIGAN, priority 2011, published 2012)

Key:
[1] = test system: b.End3 monolayers; assay: Paracellular permeability across b.End3 monolayers in transwells and layered microfluidic devices
Protocol: The permeability of [^14C]-mannitol as a function of days across b.End3 cells cultured in transwells and layered microfluidic channels was measured. […] Consequently, mannitol has been routinely used to assess the paracellular permeability of epithelial and endothelial monolayers.
Permeability experiments were performed at 3, 6, 9, 12, 15, 18, and 21 days in culture for all three marker molecules with five replicates for both the transwells and the layered microfluidic devices. Briefly, cells grown in both the transwells and the layered microfluidic devices under static condition were removed from the incubator and washed twice by replacing culture medium with PBS solution. PBS solutions were then aspirated and replaced by the designated solution with radioactively labeled marker molecules at the apical (top) compartment. All transwells and layered microfluidic devices were then placed onto the shaker at 100 rpm inside the incubator at 37° C., 95% air, and 5% CO2 for a total of 60 minutes. At every 10 minute interval, the transwells and the layered microfluidic devices were taken out of the incubator; the PBS solutions from the basolateral compartments were collected and replaced by fresh PBS solutions. At the end of the 1 hour incubation time, the solutions in both the apical and basolateral compartments were collected. All the samples collected during the experiments were measured using liquid scintillation counter which evaluates the radioactivity of each sample in the unit of count per minute (CPM). CPMs from all samples are then converted into concentration using the standard dilution scheme.
The permeability of a given molecule across the monolayer was calculated by suing a derived form of a differential equation based on Fick's Law: […]
The unit of measurement cm/s for permeability coefficient is commonly used.

[2] = test system: b.END.3 cell monolayer; assay: TEER / impedance of b.END.3 cell monolayer after chemical treatment in microfluidic chip; assay type: cell-based, mouse
Protocol: Cell Seeding and Culture. Epithelial (MDCK-2) and endothelial (b.END.3) cell lines were selected because they offered well characterized and accepted TEER values to compare with the experimental results. […] All cell lines were cultured in endothelial growth media (DMEM with 10% fetal bovine serum and 1% penicillin/streptomycin) prior to seeding in the microfluidic chip. The microfluidic chip was exposed to plasma oxygen for 5 min to make hydrophilic. Prior to cell seeding, fibronectin solution (Invitrogen) at a concentration of 100 μg/mL in phosphate buffered saline (PBS) was injected into the upper (endothelial) channel to promote cell adhesion. The lower channel was preloaded with growth media. […]
Resolving TEER from Circuit Model. In order to resolve the TEER value from the experimental impedance spectra, the control impedance spectra (taken from the same chip just before cell seeding) was subtracted from the measured impedance spectra (with cells) to eliminate the effect from electrolyte, membrane, and electrode-electrolyte interfaces and simplify the analysis. […]

Row | Compound | lower permeability in layered microfluidic channels compared to transwells ([1]; Example 2, b.End3, as a function of days in culture (FIG. 11)) | lower permeability across b.End3 monolayers in layered microfluidic devices compared to transwells ([1]; Example 5, after 9 days in culture (FIG. 11A)) | permeability relative to the large markers in layered microfluidic devices (size selectivity) ([1]; day 3 and day 6 in culture (FIG. 11E)) | impedance of the entire system following treatment ([2]; all frequency points, 30 min, 0.1% in DMEM) | TEER (paracellular resistance) after treatment ([2]; b.END.3 monolayer treated 30 min with 0.1% in DMEM, before treatment 161.51±0.755 Ωcm^2)
1 | OC[C@@H](O)[C@@H](O)[C@H](O)[C@H](O)CO [[^14C]-mannitol, [^14C]-D-Mannitol] | 15 fold | 10 fold | higher permeability |  | 
2 | TritonX-100 |  |  |  | decreased significantly | 39.73±1.925 Ωcm^2
